Assay results from ChEMBL document CHEMBL5380860, “Design, Synthesis, and Antitumor Activity of Potent and Selective EGFR L858R/T790M Inhibitors and Identification of a Combination Therapy to Overcome Acquired Resistance in Models of Non-small-cell Lung Cancer” (J Med Chem, 2023).

Legend:
[1] = system: A-431; assay: Induction of apoptosis in human A-431 cells assessed as early apoptotic cells at 1 uM incubated for 48 hrs by AnnexinV-FITC/PI staining based flow cytometry (reference value: 1.37%); format: toxicity, cell-based; details: a-431, 48 h
[2] = system: NCI-H1975; assay: Induction of apoptosis in human NCI-H1975 cells assessed as early apoptotic cells at 0.1 uM incubated for 48 hrs by AnnexinV-FITC/PI staining based flow cytometry (reference value: 0.61%); format: functional
[3] = system: HCC827; assay: Induction of apoptosis in human HCC827 cells assessed as late apoptotic cells at 1 uM incubated for 48 hrs by AnnexinV-FITC/PI staining based flow cytometry (reference value: 1.75%); format: functional
[4] = system: A549; assay: Induction of cell cycle arrest in human A549 cells assessed as accumulation of cells at G1 phase at 0.1 uM incubated for 48 hrs by PI staining based flow cytometry (reference value: 52.4%); format: toxicity; details: a549, 48 h
[5] = system: NCI-H1975; assay: Induction of cell cycle arrest in human NCI-H1975 cells assessed as accumulation of cells at S phase at 0.1 uM incubated for 48 hrs by PI staining based flow cytometry (reference value: 29.8%); format: functional
[6] = system: A-431; assay: Induction of apoptosis in human A-431 cells assessed as late apoptotic cells at 10 uM incubated for 48 hrs by AnnexinV-FITC/PI staining based flow cytometry (reference value: 1.86%); format: toxicity, cell-based; details: a-431, 48 h
[7] = system: HCC827; assay: Induction of apoptosis in human HCC827 cells assessed as late apoptotic cells at 10 uM incubated for 48 hrs by AnnexinV-FITC/PI staining based flow cytometry (reference value: 1.75%); format: functional
[8] = system: HCC827; assay: Induction of apoptosis in human HCC827 cells assessed as early apoptotic cells at 1 uM incubated for 48 hrs by AnnexinV-FITC/PI staining based flow cytometry (reference value: 0.24%); format: functional
[9] = system: A549; assay: Induction of cell cycle arrest in human A549 cells assessed as accumulation of cells at S phase at 10 uM incubated for 48 hrs by PI staining based flow cytometry (reference value: 29.4%); format: toxicity; details: a549, 48 h
[10] = system: A549; assay: Induction of cell cycle arrest in human A549 cells assessed as accumulation of cells at G2 phase at 0.1 uM incubated for 48 hrs by PI staining based flow cytometry (reference value: 18.1%); format: toxicity; details: a549, 48 h
[11] = system: HCC827; assay: Induction of apoptosis in human HCC827 cells assessed as early apoptotic cells at 10 uM incubated for 48 hrs by AnnexinV-FITC/PI staining based flow cytometry (reference value: 0.24%); format: functional
[12] = system: HCC827; assay: Induction of cell cycle arrest in human HCC827 cells assessed as accumulation of cells at G1 phase at 0.1 uM incubated for 48 hrs by PI staining based flow cytometry (reference value: 65.2%); format: functional
[13] = system: NCI-H1975; assay: Induction of apoptosis in human NCI-H1975 cells assessed as late apoptotic cells at 0.1 uM incubated for 48 hrs by AnnexinV-FITC/PI staining based flow cytometry (reference value: 0.79%); format: functional
[14] = target: Epidermal growth factor receptor (Homo sapiens, UniProt P00533); assay: Inhibition of wild type EGFR in human A549 cells assessed as inhibition of EGF-induced ERK-1/2 phosphorylation at 10 uM pretreated with compound for 4 hrs followed by incubation with EGF for 10 mins by western blot analysis; format: toxicity, cell-based; details: a549, 4.167 h, time 250 min
[15] = system: A549; assay: Induction of apoptosis in human A549 cells assessed as early apoptotic cells at 10 uM incubated for 48 hrs by AnnexinV-FITC/PI staining based flow cytometry (reference value: 3.89%); format: toxicity, cell-based; details: a549, 48 h
[16] = system: HCC827; assay: Induction of cell cycle arrest in human HCC827 cells assessed as accumulation of cells at G1 phase at 1 uM incubated for 48 hrs by PI staining based flow cytometry (reference value: 65.2%); format: functional
[17] = system: A-431; assay: Induction of cell cycle arrest in human A-431 cells assessed as accumulation of cells at G1 phase at 0.1 uM incubated for 48 hrs by PI staining based flow cytometry (reference value: 46.9%); format: toxicity; details: a-431, 48 h
[18] = system: A-431; assay: Induction of cell cycle arrest in human A-431 cells assessed as accumulation of cells at G1 phase at 1 uM incubated for 48 hrs by PI staining based flow cytometry (reference value: 46.9%); format: toxicity; details: a-431, 48 h
[19] = system: HCC827; assay: Induction of cell cycle arrest in human HCC827 cells assessed as accumulation of cells at G2 phase at 1 uM incubated for 48 hrs by PI staining based flow cytometry (reference value: 25.9%); format: functional
[20] = system: NCI-H1975; assay: Induction of apoptosis in human NCI-H1975 cells assessed as late apoptotic cells at 1 uM incubated for 48 hrs by AnnexinV-FITC/PI staining based flow cytometry (reference value: 0.79%); format: functional
[21] = system: NCI-H1975; assay: Induction of cell cycle arrest in human NCI-H1975 cells assessed as accumulation of cells at G2 phase at 1 uM incubated for 48 hrs by PI staining based flow cytometry (reference value: 19.3%); format: functional
[22] = system: HCC827; assay: Induction of cell cycle arrest in human HCC827 cells assessed as accumulation of cells at S phase at 10 uM incubated for 48 hrs by PI staining based flow cytometry (reference value: 15.2%); format: functional
[23] = system: A549; assay: Induction of cell cycle arrest in human A549 cells assessed as accumulation of cells at G1 phase at 10 uM incubated for 48 hrs by PI staining based flow cytometry (reference value: 52.4%); format: toxicity; details: a549, 48 h
[24] = system: NCI-H1975; assay: Induction of cell cycle arrest in human NCI-H1975 cells assessed as accumulation of cells at G1 phase at 0.1 uM incubated for 48 hrs by PI staining based flow cytometry (reference value: 50.1%); format: functional
[25] = system: A-431; assay: Induction of cell cycle arrest in human A-431 cells assessed as accumulation of cells at G2 phase at 10 uM incubated for 48 hrs by PI staining based flow cytometry (reference value: 21.7%); format: toxicity; details: a-431, 48 h
[26] = system: HCC827; assay: Induction of cell cycle arrest in human HCC827 cells assessed as accumulation of cells at G2 phase at 10 uM incubated for 48 hrs by PI staining based flow cytometry (reference value: 25.9%); format: functional
[27] = system: A549; assay: Induction of apoptosis in human A549 cells assessed as early apoptotic cells at 1 uM incubated for 48 hrs by AnnexinV-FITC/PI staining based flow cytometry (reference value: 3.89%); format: toxicity, cell-based; details: a549, 48 h
[28] = system: HCC827; assay: Induction of cell cycle arrest in human HCC827 cells assessed as accumulation of cells at G1 phase at 10 uM incubated for 48 hrs by PI staining based flow cytometry (reference value: 65.2%); format: functional
[29] = system: A-431; assay: Induction of apoptosis in human A-431 cells assessed as early apoptotic cells at 10 uM incubated for 48 hrs by AnnexinV-FITC/PI staining based flow cytometry (reference value: 1.37%); format: toxicity, cell-based; details: a-431, 48 h
[30] = system: NCI-H1975; assay: Induction of cell cycle arrest in human NCI-H1975 cells assessed as accumulation of cells at G1 phase at 10 uM incubated for 48 hrs by PI staining based flow cytometry (reference value: 50.1%); format: functional
[31] = system: A549; assay: Induction of apoptosis in human A549 cells assessed as late apoptotic cells at 1 uM incubated for 48 hrs by AnnexinV-FITC/PI staining based flow cytometry (reference value: 0.51%); format: toxicity, cell-based; details: a549, 48 h
[32] = system: A-431; assay: Induction of cell cycle arrest in human A-431 cells assessed as accumulation of cells at G2 phase at 0.1 uM incubated for 48 hrs by PI staining based flow cytometry (reference value: 21.7%); format: toxicity; details: a-431, 48 h

Sequence of Epidermal growth factor receptor (P00533 whole entry): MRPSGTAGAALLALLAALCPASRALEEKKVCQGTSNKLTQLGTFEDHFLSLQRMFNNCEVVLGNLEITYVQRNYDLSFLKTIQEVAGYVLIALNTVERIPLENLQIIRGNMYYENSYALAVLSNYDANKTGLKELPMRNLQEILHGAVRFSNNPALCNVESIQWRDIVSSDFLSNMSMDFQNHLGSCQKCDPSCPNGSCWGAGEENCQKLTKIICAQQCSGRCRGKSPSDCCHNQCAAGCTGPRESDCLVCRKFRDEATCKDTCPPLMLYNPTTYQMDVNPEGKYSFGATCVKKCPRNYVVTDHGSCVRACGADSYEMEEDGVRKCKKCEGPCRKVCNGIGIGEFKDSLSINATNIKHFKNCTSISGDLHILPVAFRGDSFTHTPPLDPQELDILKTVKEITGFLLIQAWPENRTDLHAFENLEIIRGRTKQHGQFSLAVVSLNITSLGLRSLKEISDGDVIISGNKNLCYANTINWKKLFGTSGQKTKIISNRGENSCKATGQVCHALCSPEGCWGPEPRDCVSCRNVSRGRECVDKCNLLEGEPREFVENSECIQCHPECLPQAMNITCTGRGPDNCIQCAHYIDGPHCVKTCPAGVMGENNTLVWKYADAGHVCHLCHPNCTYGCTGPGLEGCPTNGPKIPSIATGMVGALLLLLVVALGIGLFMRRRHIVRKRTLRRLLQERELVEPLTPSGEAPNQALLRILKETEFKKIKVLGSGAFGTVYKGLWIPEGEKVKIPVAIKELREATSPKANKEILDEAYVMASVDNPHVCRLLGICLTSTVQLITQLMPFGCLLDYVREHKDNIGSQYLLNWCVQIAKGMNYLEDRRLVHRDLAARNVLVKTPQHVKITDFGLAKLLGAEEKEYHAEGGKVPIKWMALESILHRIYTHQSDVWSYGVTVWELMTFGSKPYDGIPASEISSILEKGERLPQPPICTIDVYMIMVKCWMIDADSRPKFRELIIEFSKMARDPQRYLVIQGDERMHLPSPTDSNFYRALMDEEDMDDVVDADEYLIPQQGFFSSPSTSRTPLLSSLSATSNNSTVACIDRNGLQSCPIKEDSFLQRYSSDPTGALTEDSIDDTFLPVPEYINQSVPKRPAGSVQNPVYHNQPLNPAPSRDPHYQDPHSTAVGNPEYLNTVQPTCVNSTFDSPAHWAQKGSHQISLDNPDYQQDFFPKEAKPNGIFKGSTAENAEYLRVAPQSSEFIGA

SMILES: C=CC(=O)Nc1cccc(Nc2nc(Nc3ccc(N4CCN(C)CC4)cc3)nc3ccc(F)cc23)c1
- Activity [1]: 3.58%
- Activity [2]: 7.05%
- Activity [3]: 11.8%
- Activity [4]: 57.2%
- Activity [5]: 17.5%
- Activity [6]: 3.43%
- Activity [7]: 12.3%
- Activity [8]: 22.7%
- Activity [9]: 22.8%
- Activity [10]: 16.5%
- Activity [11]: 28.4%
- Activity [12]: 74%
- Activity [13]: 8.57%
- inhibition (INH) [14]: Not Active
- Activity [15]: 14.6%
- Activity [16]: 78.2%
- Activity [17]: 52.6%
- Activity [18]: 54.1%
- Activity [19]: 12.2%
- Activity [20]: 11.6%
- Activity [21]: 11.8%
- Activity [22]: 7.33%
- Activity [23]: 63.8%
- Activity [24]: 67.1%
- Activity [25]: 10.7%
- Activity [26]: 11%
- Activity [27]: 6.44%
- Activity [28]: 81.1%
- Activity [29]: 14.5%
- Activity [30]: 80.5%
- Activity [31]: 0.98%
- Activity [32]: 17.4%

SMILES: C=CC(=O)Nc1cc(Nc2nccc(-c3cn(C)c4ccccc34)n2)c(OC)cc1N(C)CCN(C)C [OSIMERTINIB]
- Activity [1]: 5.72%
- Activity [2]: 7.15%
- Activity [3]: 18%
- Activity [4]: 53.4%
- Activity [5]: 16.2%
- Activity [6]: 19.4%
- Activity [7]: 22.4%
- Activity [8]: 17.2%
- Activity [9]: 13.2%
- Activity [10]: 15.1%
- Activity [11]: 20.4%
- Activity [12]: 72.9%
- Activity [13]: 9.27%
- Activity [15]: 18.6%
- Activity [16]: 77.2%
- Activity [17]: 49.8%
- Activity [18]: 52.5%
- Activity [19]: 10.9%
- Activity [20]: 21.4%
- Activity [21]: 11.1%
- Activity [22]: 8.52%
- Activity [23]: 74.6%
- Activity [24]: 64.3%
- Activity [25]: 13.1%
- Activity [26]: 11.6%
- Activity [27]: 8%
- Activity [28]: 79.5%
- Activity [29]: 28.1%
- Activity [30]: 78.3%
- Activity [31]: 0.85%
- Activity [32]: 19.9%
